54 molecules from ChEMBL document CHEMBL3882736, “Modulation microtubules diseases; antiproliferative agents; antiinflamamtory agents” (2011) can be followed below.

Structures are written as SMILES.

Assay [1] in a line: Cytotoxicity against human PC3 cells assessed as growth inhibition at 20 uM after 40 hrs by MTT assay relative to control. It counts as functional. The conditions noted are these: PC-3, 40 h, read-out: GI. The gist of the method:
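Human tumour cells in late log phase were grown in their own media containing 10% FBS and dispensed at 90 µL per well (1.1× final, 50000 to 200,000 cell/mL) onto 10 µL of compound (10× final) in 96-well plates, taken from screening plates prepared at 20 µM. After 40 hr at 37° C. in 5% CO2, MTT was added for 6 hours, the cells were lysed overnight with SDS/HCl, and plates were read at 590 nm. Growth inhibition is expressed relative to control.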
Background: Formazan colour is commonly taken as a measure of viable cells.

Assay [2] addresses Tubulin (Homo sapiens) (UniProt P68371+Q9H4B7+P0DPH7+P68366+Q13509+Q71U36+P04350+Q3ZCM7+P07437+P68363+Q9BQE3+Q6PEY2+Q13885+Q9BVA1+Q9BUF5). Description: Inhibition of tubulin (unknown origin) polymerization at 50 uM by turbidometric method relative to control. The assay is classed as protein-complex assay. In outline: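 Microtubule protein of unstated origin was incubated with compound at 0° C. Polymerisation was started with 1 mM GTP and heating to 37° C. in cuvettes, and absorbance at 340 nm was followed over time in a thermostatically controlled spectrophotometer. Inhibition of polymerisation is expressed as percent relative to control.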

For the molecule `CCCC(Nc1cncc(-c2ccc(C(=O)NCCN(C)C)cc2)n1)c1ccccc1` (stereo unspecified), in assay [1], the inhibition of growth at 20 µM was < 50%. `CCCC(Nc1cncc(-c2ccc(CNC(=O)C3CCCNC3)cc2)n1)c1ccccc1` (stereo unspecified): the inhibition (as a rule, the change of the read-out against control, counted positive when it falls) in assay [2] is > 50%. The inhibition of growth at 20 µM in assay [1] is > 50%.

In the case of `COc1cc(-c2cncc(NC(C)c3ccc(-c4cccnc4)cc3)n2)ccc1O` (stereo unspecified), in assay [2], the inhibition was > 50%. For `CCCC(Nc1cncc(-c2ccc(NC(=O)N3CCN(C)CC3)c(OC)c2)n1)c1cccnc1` (stereo unspecified), the inhibition of growth at 20 µM in assay [1] was > 50%. Consider `CCCC(Nc1cncc(-c2ccc(NC(=O)NCC)cc2)n1)c1cccnc1` (stereo unspecified), for which, in assay [1], the inhibition of growth at 20 µM is < 50%. For `CCCC(Nc1cncc(-c2ccc(NC(=O)NCC)c(CC)c2)n1)c1cccnc1` (stereo unspecified), the inhibition in assay [2] is > 50%. For the same molecule, the inhibition of growth at 20 µM in assay [1] was > 50%. With `CCCC(Nc1cncc(-c2ccc(NC(=O)NCC)c(C)c2)n1)c1cccnc1` (stereo unspecified), in assay [2], the inhibition is > 50%. The inhibition of growth at 20 µM in assay [1] is > 50%. With `CCCC(Nc1cncc(-c2ccc(NC(=O)NCC)c(OC)c2)n1)c1cccc(F)c1` (stereo unspecified), in assay [2], the inhibition was > 50%. Also, in assay [1], the inhibition of growth at 20 µM was > 50%.

Turning to `CCCC(Nc1cncc(-c2ccc(OCCCN3CCCC3)c(OC)c2)n1)c1ccccc1` (stereo unspecified), the inhibition in assay [2] is > 50%. Further, the inhibition of growth at 20 µM in assay [1] was > 50%. Take `CCCC(Nc1cncc(-c2ccc(CN(C)C)cc2)n1)c1ccccc1` (stereo unspecified): in assay [1], the inhibition of growth at 20 µM was < 50%. `CCCC(Nc1cncc(-c2ccc(CN3CCN(C)CC3)cc2)n1)c1ccccc1` (stereo unspecified): the inhibition of growth at 20 µM in assay [1] is < 50%. For the molecule `CCNC(=O)Nc1ccc(-c2cncc(NC(CCOC)c3ccccc3)n2)cc1OC` (stereo unspecified), in assay [2], the inhibition is > 50%. Also, in assay [1], the inhibition of growth at 20 µM is > 50%. As to `CCC[C@H](Nc1ccnc(-c2ccc(NC(=O)NCC)c(OC)c2)n1)c1cccnc1`, the inhibition in assay [2] is > 50%. Also, in assay [1], the inhibition of growth at 20 µM was > 50%. For `CCCC(Nc1cncc(-c2ccc(OCCCN3CCCC3)c(OC)c2)n1)c1cccnc1` (stereo unspecified), in assay [1], the inhibition of growth at 20 µM was < 50%. As for `CCCC(Nc1cncc(-c2ccc(OCCCN3CCN(C)CC3)c(OC)c2)n1)c1ccccc1` (stereo unspecified), the inhibition in assay [2] is > 50%. In addition, the inhibition of growth at 20 µM in assay [1] is > 50%. For `CCCC(Nc1cncc(-c2ccc(NC(=O)NCC)c(OC)c2)n1)c1cccnc1` (stereo unspecified), the inhibition in assay [2] was > 50%. Further, the inhibition of growth at 20 µM in assay [1] is > 50%. As for `CCNC(=O)Nc1ccc(-c2cncc(N[C@@H](COC)c3ccccc3)n2)cc1OC`, the inhibition in assay [2] was > 50%. The inhibition of growth at 20 µM in assay [1] was > 50%.

`CCCC(Nc1cncc(-c2ccc(OCCCCN(CC)CC)c(OC)c2)n1)c1ccccc1` (stereo unspecified): the inhibition in assay [2] is > 50%. The inhibition of growth at 20 µM in assay [1] is > 50%.

As for `CCCC(Nc1cncc(-c2ccc(NC(=O)NCC)c(OC)c2)n1)c1ccccn1` (stereo unspecified), in assay [2], the inhibition was > 50%. In addition, the inhibition of growth at 20 µM in assay [1] was > 50%. As for `CCCC(Nc1cncc(-c2ccc(CN3CCOCC3)cc2)n1)c1ccccc1` (stereo unspecified), in assay [1], the inhibition of growth at 20 µM was < 50%.

As to `CCC[C@H](Nc1cncc(-c2ccc(NC(=O)NCC)c(OC)c2)n1)c1ccccc1`, the inhibition in assay [2] is > 50%. Moreover, in assay [1], the inhibition of growth at 20 µM is > 50%. As to `CCCC(Nc1cncc(-c2ccc(NC(=O)c3cccnc3)c(OC)c2)n1)c1cccnc1` (stereo unspecified), the inhibition of growth at 20 µM in assay [1] was < 50%. With `CCCC(Nc1cncc(-c2ccc(NC(=O)NCC)c(OC)c2)n1)c1cnccc1C` (stereo unspecified), the inhibition in assay [2] was > 50%. The inhibition of growth at 20 µM in assay [1] is > 50%. With `COc1cc(-c2cncc(NC(C)c3cccc(NC(=O)[C@H]4CCCN4)c3)n2)ccc1O` (stereo partly specified), the inhibition in assay [2] is > 50%. Consider `CCCC(Nc1cncc(-c2ccc(NC(=O)NCCCN3CCOCC3)c(OC)c2)n1)c1cccnc1` (stereo unspecified), for which the inhibition in assay [2] was > 50%. In addition, the inhibition of growth at 20 µM in assay [1] is > 50%.

For the molecule `CCCC(Nc1cncc(-c2ccc(C(=O)NCCCCCN)c(C)c2)n1)c1cccnc1` (stereo unspecified), in assay [1], the inhibition of growth at 20 µM was < 50%. As for `CCCC(Nc1cncc(-c2ccc(C(=O)NCCCN3CCOCC3)cc2)n1)c1ccccc1` (stereo unspecified), in assay [1], the inhibition of growth at 20 µM was < 50%. `CCCC(Nc1cncc(-c2ccc(OCCCCN3CCCCC3)c(OC)c2)n1)c1ccccc1` (stereo unspecified): the inhibition in assay [2] is > 50%. In assay [1], the inhibition of growth at 20 µM was > 50%. On to `CCCC(Nc1nnc(C)c(-c2cc(OC)c(OC)c(OC)c2)n1)c1ccccc1` (stereo unspecified), for which the inhibition of growth at 20 µM in assay [1] was < 50%. `CCC[C@H](Nc1cncc(-c2ccc(NC(=O)NCC)c(C)c2)n1)c1cccnc1`: in assay [2], the inhibition is > 50%. Also, the inhibition of growth at 20 µM in assay [1] is > 50%. Regarding `CCCC(Nc1cncc(-c2ccc(CN3CCC[C@H]3CO)cc2)n1)c1ccccc1` (stereo partly specified), in assay [1], the inhibition of growth at 20 µM is < 50%. For `CCCC(Nc1cncc(-c2ccc(OCCN(CC)CC)c(OC)c2)n1)c1cncc(C)c1` (stereo unspecified), in assay [1], the inhibition of growth at 20 µM was < 50%. With `CCCC(Nc1cncc(-c2ccc(CO)c(OC)c2)n1)c1cccnc1` (stereo unspecified), in assay [1], the inhibition of growth at 20 µM was < 50%. `CCCC(Nc1cncc(-c2ccc(OCCCN3CCOCC3)c(OC)c2)n1)c1cccnc1` (stereo unspecified): the inhibition of growth at 20 µM in assay [1] was < 50%. The same measure, in the same setting: the result for `CCCC(Nc1cncc(-c2ccc(C(=O)NCCCN(CC)CC)cc2)n1)c1ccccc1` (stereo unspecified) reads < 50%; that for `CCCC(Nc1cncc(-c2ccc(OCCCCN3CCOCC3)c(OC)c2)n1)c1ccccc1` (stereo unspecified), < 50%.

For the molecule `CCCC(Nc1cncc(-c2ccc(OCCCN3CCOCC3)c(OC)c2)n1)c1ccccc1` (stereo unspecified), the inhibition of growth at 20 µM in assay [1] is > 50%. For `COc1cc(-c2cncc(NC(C)c3cccc(NC(=O)c4cccnc4)c3)n2)ccc1O` (stereo unspecified), in assay [2], the inhibition is > 50%. On to `CCCC(Nc1cncc(-c2ccc(C(=O)N3CCOCC3)cc2)n1)c1ccccc1` (stereo unspecified), for which the inhibition of growth at 20 µM in assay [1] was < 50%.

Consider `CCCC(Nc1cncc(-c2ccc(NC(=O)NCCCN(CC)CC)c(OC)c2)n1)c1cccnc1` (stereo unspecified), for which the inhibition of growth at 20 µM in assay [1] was < 50%. On the same count and under the same terms, with `CCNC(=O)Nc1ccc(-c2cncc(NC(C)c3cccnc3)n2)cc1OC` (stereo unspecified) the figure was < 50%. In the case of `CCCC(Nc1cncc(-c2cc(OC)c(OC)c(OC)c2)c1)c1ccccc1` (stereo unspecified), the inhibition of growth at 20 µM in assay [1] is > 50%. Still for that read-out and setting: with `CCCC(Nc1cncc(-c2ccc(CN3CCC(O)CC3)cc2)n1)c1ccccc1` (stereo unspecified) the figure was < 50%; with `CCCC(Nc1cncc(-c2ccc(CNC(=O)C3CCC(=O)N3)cc2)n1)c1ccccc1` (stereo unspecified), < 50%; with `CCCC(Nc1cncc(-c2ccc(NC(=O)C3CCNCC3)c(OC)c2)n1)c1cccnc1` (stereo unspecified), < 50%. On the same count and under the same terms, with `CCC[C@H](Nc1cncc(-c2ccc(NC(=O)CN(C)C)c(OC)c2)n1)c1cccnc1` the figure was > 50%. For `CC[C@H](Nc1cncc(-c2ccc(O)c(OC)c2)n1)c1ccccc1`, the inhibition in assay [2] was > 50%.

Regarding `CCCC(Nc1cncc(-c2ccc(CN3CCCCC3)cc2)n1)c1ccccc1` (stereo unspecified), the inhibition of growth at 20 µM in assay [1] was < 50%. Same read-out and setting: the result for `COc1cc(-c2ncc(C)c(NC(CCO)c3ccccc3)n2)ccc1O` (stereo unspecified) reads < 50%; that for `CCCC(Nc1cncc(-c2ccc(C(=O)N3CCN(C)CC3)cc2)n1)c1ccccc1` (stereo unspecified), < 50%; that for `CCCC(Nc1cncc(-c2ccc(OCCCN3CCN(C)CC3)c(OC)c2)n1)c1cccnc1` (stereo unspecified), < 50%.

Turning to `COc1cc(-c2nc(N[C@H](C)c3ccccc3)nnc2C)cc(OC)c1OC`, the inhibition of growth at 20 µM in assay [1] is < 50%. Consider `COc1cc(-c2cncc(N[C@@H](C)c3ccccc3)n2)ccc1O`, for which the inhibition in assay [2] is > 50%. With `COc1cc(-c2nc(N[C@H](C)c3ccccc3)nnc2C)ccc1O`, the inhibition of growth at 20 µM in assay [1] was < 50%.
